Legend:
[1] = tested on: skin senescent cells (aged skin fibroblasts, DI model and RS model); assay: Survival rate of aged cells (CCK-8), selective apoptosis efficacy on skin senescent cells; format: cell-based, human; details: 100 μg/ml for 3 days, FIG. 2; for apoptosis effect of senescent cells (survival rate of aged cells, CCK-8): DI model or RS model skin fibroblasts; for selective apoptosis effect on the senescent cells versus normal cells: senescent versus normal skin fibroblasts
Protocol: Specifically, in the case of the DI model, the skin fibroblasts (Normal human dermal fibroblasts, Lonza, Switzerland) were cultured in DMEM Medium (Lonza, Switzerland) containing 10% FBS, and then were inoculated into a chamber slide (Thermo Fisher Scientific, USA) at 1×10^3 cells per well and cultured in a CO2 incubator of 5% concentration at 37° C. for 24 hours. The cultured wells were treated with each of Doxorubicin-hydrochloride (Sigma) and IGF-1 (Sigma) in a concentration of 100 ng/ml for 4 days to induce early senescence of the skin fibroblasts. As a control group, the normal skin fibroblasts that were not treated with Dox or IGF-1 were prepared. Thereafter, for the immunofluorescence stain, the cell culture solution was washed with PBS three times and fixed in 4% paraformaldehyde for 30 minutes. Then, the skin fibroblast sample was washed with PBS containing 0.2% Triton X-100 three times, added to PBS containing 3% BSA, and left for 1 hour. Next, the sample was incubated in 1% BSA containing rabbit polyclonal anti-FOXO4 antibody (SAB4501887, Sigma) (1:500 dilution) at 4° C. overnight to allow the antibody to bind to an antigen contained in the skin fibroblasts. Thereafter, the Sample was washed with the PBS three times, incubated with Alexa Fluor®488-conjugated goat polyclonal secondary antibody (A32731, ThermoFisher Scientific) (1:1000 dilution) against rabbit IgG-H&L at a room temperature for 1 hour, and then washed with the PBS three times. Next, a drop of the mounting solution containing DAPI was placed on a microscope slide glass and fixed by raising the coverslip itself. The fixed sample was observed by a confocal microscope (LSM 980, Zeiss, Germany).
In the case of the RS model, the aged skin fibroblasts were prepared by continuously culturing skin fibroblasts (Normal human dermal fibroblasts, Lonza, Switzerland) in DMEM Medium (Lonza, Switzerland) containing 10% FBS over 30 to 40 times. For the immunofluorescence staining test, each of the aged skin fibroblasts (p41) and the normal skin fibroblasts was inoculated into a chamber slide (Thermo Fisher Scientific, USA) at 1×10^3 cells per well, and cultured in a CO2 incubator of 5% concentration at 37° C. for 48 hours. Thereafter, the cell culture solution was washed with PBS three times and fixed in 4% paraformaldehyde for 30 minutes. Next, the skin fibroblast sample was washed with PBS containing 0.2% Triton X-100 three times, added to PBS containing 3% BSA, and left for 1 hour. Then, the sample was incubated in 1% BSA containing a rabbit polyclonal anti-FOXO4 antibody (SAB4501887, Sigma) (1:500 dilution) at 4° C. overnight to allow the antibody to bind to an antigen contained in the skin fibroblasts. Thereafter, the sample was washed with the PBS three times, incubated with Alexa Fluor®488-conjugated goat polyclonal secondary antibody (A32731, ThermoFisher Scientific) (1:1000 dilution) against rabbit IgG-H&L at a room temperature for 1 hour, and then was washed with the PBS three times. […]
As in Test Example 1, after the skin fibroblasts (DI model) that induced senescence by treating with each of Doxorubicin and IGF-1 in a concentration of 100 ng/ml for 4 days or the fibroblasts (RS model) aged by culturing the skin fibroblasts up to passage 40 were treated with a peptide (21a-D) consisting of the amino acid sequence of […] […] ([…]) in each concentration of 100 μg/ml for 3 days, a survival rate of the aged cells was measured. […]

[2] = tested on: skin senescent cells (DI model and RS model); assay: SA-β-gal stain and microscopic observation of apoptosis efficacy on skin senescent cells; format: cell-based, human; details: treated as in Test Example 2, FIGS. 3A and 3B
Protocol: In the same manner as that of Test Example 2, after the DI model and the RS model were treated with a peptide (21a-D) consisting of the amino acid sequence of […] (SEQ ID NO: 1) and a peptide (FOXO4-DRI) consisting of the amino acid sequence of […] (SEQ ID NO: 4), SA-3-gal (senescent associated-β-galactosidase) stain and microscopic observation were performed to visually confirm an apoptosis efficacy of the skin senescent cells. The SA-3-Gal stain was performed according to the protocol using the Senescence Cell Histochemical Staining Kit (CS0030, Sigma, USA), and after 24 hours of the staining, it was confirmed whether or not the cells were stained through an optical microscope.

p53 and FOXO4 = target: T1, p53 and FOXO4 (Homo sapiens, UniProt P04637); assay: Immunofluorescence observation of cytoplasmic movement of p53; format: cell-based; details: DI-treated aged skin fibroblasts; 100 ug/ml for 3 days; FIG. 4
T1 construct: endogenous in cells; host or cells: skin fibroblasts made senescent with doxorubicin and IGF-1 (DI model)
Protocol: It was confirmed through the immunofluorescence (IF) stain experiment whether or not this phenomenon was observed when the skin senescent cells were treated with the peptide having the amino acid sequence of SEQ ID NO: 1 according to an embodiment of the present invention. The aged skin fibroblasts treated with DI (Doxorubicin/IGF-1) were treated with the peptide 21a-D in the same manner as in Test Example 2, and then the expression and cytoplasmic movement of FOXO4 and p53 were observed.
Specifically, the skin fibroblasts were inoculated into a chamber slide (Thermo Fisher Scientific, USA) at 1×10^3 cells per well and cultured in a 5% CO2 incubator at 37° C. for 24 hours. The cultured wells were treated with each of Dox and IGF-1 in a concentration of 100 ng/ml for 4 days to induce early senescence of the skin fibroblasts, and then treated with the peptide 21a-D in a concentration of 100 ug/ml for 3 days followed by being further cultured. For immunofluorescence stain, the cell culture solution was washed with PBS three times and fixed by treating it with ice-cold methanol at −20° C. for 10 minutes. Next, it was added into PBS containing 3% BSA and left for 1 hour. […]

MMP-1 = MMP-1 expression in senescent cells by qPCR; format: cell-based, human; details: DI model senescent cells, treated as in Test Example 2; FIG. 5
Protocol: After treating the DI model with the peptide (21a-D) consisting of the amino acid sequence of […] (SEQ ID NO: 1) and the peptide (FOXO4-DRI) consisting of the amino acid sequence of […] (SEQ ID NO: 4) in the same manner as in Test Example 2 above, an ability to suppress the expression of MMP-1 in the senescent cells was identified. After recovering the cultured cells, total RNA was isolated using a TRIzol™ solution (TRIzol™ Reagent, Invitrogen) extraction method. 1 μg of the isolated RNA was synthesized into cDNA using reverse transcriptase (RevertAid Firist strand cDNA synthesis kit, Thermofisher), and then diluted to a final concentration of 200 μl. In order to perform PCR, a mixing kit was prepared by mixing […] (Hs00899658_m1, ThermoFisher Scientific), 10 μl of Taqman universal master mix II with UNG (Applied Biosystems), and 5 μl of distilled water to allow the mixture to be diluted to 16 μl. 16 μl of the mixing kit and 4 μl of cDNA were mixed to perform qPCR under the following reaction conditions. The reaction conditions were 95° C., initialization reaction for 10 minutes, denaturation at 95° C. for 15 seconds, annealing at 60° C. for 60 seconds, and extension reaction at 50° C. for 20 seconds, which were set to be performed in a PCR device (7500 Fast Real-time PCR system, Applied Biosystems) with repetition of 40 times.

T1 sequence (P04637 whole entry): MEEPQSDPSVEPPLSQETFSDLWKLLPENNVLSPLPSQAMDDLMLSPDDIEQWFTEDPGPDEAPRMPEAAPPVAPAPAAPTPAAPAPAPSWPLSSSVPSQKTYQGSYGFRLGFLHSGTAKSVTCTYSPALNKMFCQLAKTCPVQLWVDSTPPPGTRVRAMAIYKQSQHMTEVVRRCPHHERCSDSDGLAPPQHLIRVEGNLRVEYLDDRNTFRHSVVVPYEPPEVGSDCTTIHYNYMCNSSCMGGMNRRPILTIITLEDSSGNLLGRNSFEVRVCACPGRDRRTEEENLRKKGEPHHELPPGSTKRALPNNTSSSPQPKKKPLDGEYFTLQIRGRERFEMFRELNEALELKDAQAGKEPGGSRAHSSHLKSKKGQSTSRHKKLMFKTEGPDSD

**Q.** What does the source list for “LTLRKEPASEIAQSILEAYSQNGWANRRSGGKRPPPRRRQRRKKRG [FOXO4-DRI, reference compound]”?
**A.** apoptosis effect of senescent cells (survival rate of aged cells, CCK-8) [1]: apoptosis effect had on the senescent cells as well as even on the normal cells; selective apoptosis effect on the senescent cells versus normal cells [1]: weak

**Q.** Which “apoptosis effect of senescent cells (survival rate of aged cells, CCK-8)” value [1] does the source give for AYSQNGWANRRPRRRQRRKKRG [22a-D] here?
**A.** minimal

**Q.** AYSQNGWANRRRRGGRRRRRR [21a-D] was tested. Which “number of senescent cells (SA-β-gal stain, microscopic observation)” value [2] did it give?
**A.** significantly reduced

**Q.** And the “binding of p53 and FOXO4 in the nucleus” value (p53 and FOXO4)?
**A.** suppressed the binding of p53 and FOXO4 in the nucleus

**Q.** What about the “cytoplasmic movement of p53 (immunofluorescence)” value (p53 and FOXO4) of the same sequence?
**A.** p53 moved to a cytoplasm in the nucleus

**Q.** And the “selective apoptosis effect on the senescent cells versus normal cells” value [1]?
**A.** selective apoptosis of only skin senescent cells was induced

**Q.** And the “expression of MMP-1 (qPCR, corrected for GAPDH)” value (MMP-1)?
**A.** suppressed

**Q.** With QRKKRRQRRRPRRNAWGNQSYA [22a-L] as the sequence, how does the “apoptosis effect of senescent cells (survival rate of aged cells, CCK-8)” value [1] read?
**A.** minimal
